# Source: patent US10238118B2 (priority 2011, dated 2019)
# Tested on: Xylella fastidiosa (Xf)
# Assay type: cell-based
# Conditions: single metabolite from Cochliobolus sp. extract, identified by NMR and MS
smiles,measurement,value
C/C=C/c1cc2c(c(=O)o1)C(=O)[C@@H](O)[C@H](C)O2 [radicinin],anti-Xf inhibitory activity of the isolated metabolite,inhibitory activity
